Values of other authors, collected in patent US20230218693A1, “HEMP SPROUT PRODUCTS AND METHODS FOR PRODUCING SAME” (priority 2020, published 2023).
Read-outs that look alike come from different tables or passages of the source. Values belong to the compound of their own block, whether it stands above or below them.

Legend:
mPGES-1 = target: T1, mPGES-1 (Homo sapiens, UniProt O14684)
T1 sequence (O14684 1-152): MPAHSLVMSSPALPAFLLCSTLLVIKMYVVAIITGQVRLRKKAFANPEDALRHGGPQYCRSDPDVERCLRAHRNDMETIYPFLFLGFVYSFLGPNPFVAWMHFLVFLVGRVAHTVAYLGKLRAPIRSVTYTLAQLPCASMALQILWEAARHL

[1] = tested on: freshly isolated human blood cells; conditions: for Effect on cell viability: human cells
COX-1 [2] = target: T2, COX-1 (Homo sapiens, UniProt P23219); conditions: COX-1, platelets
T2 construct: endogenous in cells; host or cells: freshly isolated human blood cells (platelets, according to the assay name)
T2 sequence (P23219 24-599): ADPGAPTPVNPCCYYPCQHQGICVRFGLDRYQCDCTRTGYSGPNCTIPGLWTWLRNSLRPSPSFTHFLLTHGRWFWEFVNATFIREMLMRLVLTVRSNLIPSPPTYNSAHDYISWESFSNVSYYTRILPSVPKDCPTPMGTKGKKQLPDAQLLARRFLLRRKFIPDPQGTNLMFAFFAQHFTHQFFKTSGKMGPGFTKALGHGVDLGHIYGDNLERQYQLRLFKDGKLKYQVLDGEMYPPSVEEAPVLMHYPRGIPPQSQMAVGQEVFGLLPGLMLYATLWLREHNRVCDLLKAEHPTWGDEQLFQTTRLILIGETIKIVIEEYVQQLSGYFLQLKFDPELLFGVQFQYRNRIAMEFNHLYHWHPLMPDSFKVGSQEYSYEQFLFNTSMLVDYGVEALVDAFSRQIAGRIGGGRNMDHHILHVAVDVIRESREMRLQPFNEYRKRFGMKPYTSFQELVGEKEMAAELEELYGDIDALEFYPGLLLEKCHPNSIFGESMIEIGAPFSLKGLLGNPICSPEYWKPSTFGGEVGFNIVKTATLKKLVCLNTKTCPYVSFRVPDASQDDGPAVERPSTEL

COX-2 [3] = target: T3, COX-2 (Homo sapiens, UniProt P35354); design: endogenous in cells; host or cells: freshly isolated human monocytes; conditions: COX-2, monocytes
T3 sequence (P35354 18-604): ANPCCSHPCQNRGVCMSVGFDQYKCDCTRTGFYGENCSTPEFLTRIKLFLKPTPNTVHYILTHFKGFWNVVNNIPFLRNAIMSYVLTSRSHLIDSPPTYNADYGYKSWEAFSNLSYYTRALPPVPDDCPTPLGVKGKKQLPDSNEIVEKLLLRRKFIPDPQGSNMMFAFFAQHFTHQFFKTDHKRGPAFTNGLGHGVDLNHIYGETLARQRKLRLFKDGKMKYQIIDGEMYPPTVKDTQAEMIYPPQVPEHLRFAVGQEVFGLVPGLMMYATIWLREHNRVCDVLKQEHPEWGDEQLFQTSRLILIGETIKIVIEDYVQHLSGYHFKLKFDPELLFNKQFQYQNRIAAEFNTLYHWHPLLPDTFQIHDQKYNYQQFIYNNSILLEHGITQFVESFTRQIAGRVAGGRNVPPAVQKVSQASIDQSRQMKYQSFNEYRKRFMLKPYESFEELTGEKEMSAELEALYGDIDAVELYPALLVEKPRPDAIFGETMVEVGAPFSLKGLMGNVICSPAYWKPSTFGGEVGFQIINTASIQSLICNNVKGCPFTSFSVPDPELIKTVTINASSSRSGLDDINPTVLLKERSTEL

PGE2 = conditions: result in words
5-LO [4] = target: T4, 5-LO (Homo sapiens, UniProt P09917); conditions: 5-LO cell-free
T4 sequence (P09917 1-674): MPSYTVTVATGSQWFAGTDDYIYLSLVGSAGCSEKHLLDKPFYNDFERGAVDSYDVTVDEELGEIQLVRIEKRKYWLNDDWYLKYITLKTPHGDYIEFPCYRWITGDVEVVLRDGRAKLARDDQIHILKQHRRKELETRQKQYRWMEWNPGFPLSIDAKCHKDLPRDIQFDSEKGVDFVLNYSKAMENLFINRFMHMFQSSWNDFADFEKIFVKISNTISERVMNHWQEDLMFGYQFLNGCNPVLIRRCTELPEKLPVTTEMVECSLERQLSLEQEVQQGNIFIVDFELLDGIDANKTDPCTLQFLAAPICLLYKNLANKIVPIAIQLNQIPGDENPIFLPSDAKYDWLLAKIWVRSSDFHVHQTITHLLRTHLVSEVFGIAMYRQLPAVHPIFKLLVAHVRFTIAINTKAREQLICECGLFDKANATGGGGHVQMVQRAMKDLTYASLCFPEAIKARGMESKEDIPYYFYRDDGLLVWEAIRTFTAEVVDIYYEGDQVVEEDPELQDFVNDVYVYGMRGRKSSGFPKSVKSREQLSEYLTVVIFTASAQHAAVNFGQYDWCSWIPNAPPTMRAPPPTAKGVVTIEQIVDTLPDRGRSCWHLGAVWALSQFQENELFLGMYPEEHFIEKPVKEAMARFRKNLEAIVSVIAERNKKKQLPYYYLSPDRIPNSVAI

cPLA2 = target: T5, cPLA2 (Homo sapiens, UniProt P47712); conditions: cPLA2, cell-free
T5 sequence (P47712 1-749): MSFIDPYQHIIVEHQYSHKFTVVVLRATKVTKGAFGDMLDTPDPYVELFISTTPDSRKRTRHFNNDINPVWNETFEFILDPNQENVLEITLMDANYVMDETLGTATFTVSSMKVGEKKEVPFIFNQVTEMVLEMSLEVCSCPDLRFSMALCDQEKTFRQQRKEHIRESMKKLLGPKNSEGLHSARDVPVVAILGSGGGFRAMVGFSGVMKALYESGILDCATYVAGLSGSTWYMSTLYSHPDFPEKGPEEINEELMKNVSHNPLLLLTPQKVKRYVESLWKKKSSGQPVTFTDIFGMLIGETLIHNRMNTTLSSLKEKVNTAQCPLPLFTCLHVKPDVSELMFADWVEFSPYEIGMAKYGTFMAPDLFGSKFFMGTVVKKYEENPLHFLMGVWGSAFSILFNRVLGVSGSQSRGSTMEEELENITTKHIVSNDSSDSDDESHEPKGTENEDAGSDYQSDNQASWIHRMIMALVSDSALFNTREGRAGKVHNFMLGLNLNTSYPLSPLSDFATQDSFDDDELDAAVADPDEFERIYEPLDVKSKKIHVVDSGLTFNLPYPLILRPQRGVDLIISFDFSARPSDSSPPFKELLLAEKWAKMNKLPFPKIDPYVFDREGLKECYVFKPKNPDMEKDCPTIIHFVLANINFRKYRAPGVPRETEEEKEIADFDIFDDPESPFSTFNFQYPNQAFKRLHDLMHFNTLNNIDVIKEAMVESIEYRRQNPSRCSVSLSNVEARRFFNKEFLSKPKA

COX-2 [5] = target: T3, COX-2
COX-1 [6] = tested on: COX-1
5-LO [7] = target: T4, 5-LO; design: endogenous in cells; host or cells: freshly isolated human neutrophils (PMNL); conditions: PMNL
5-LO [8] = target: T4, 5-LO; design: endogenous in cells; host or cells: freshly isolated human neutrophils (PMNL); conditions: PMNL, A23187 + AA
[9] = result in words
[10] = result in words; remark: listed apart in the source
[11] = tested on: HepG2 human hepatic carcinoma cells; conditions: dose-dependently up to 500 μM

% inhibition at 10 μM (mPGES-1; mPGES-1, cell-free, 10 μM): 90 ± 1% | IC50 (mPGES-1; mPGES-1, cell-free, read-out: CFA(1) IC50): 1800 nM | Inhibition of mPGES-1 (mPGES-1; result in words): directly inhibited mPGES-1 | % inhibition at 10 μM (COX-1 [2]; 10 μM, vs vehicle (0.1% DMSO)): 26 ± 2% | IC50 (COX-1 [2]; added 15 min prior induction, read-out: CFA(1) IC50): > 10000 nM | % inhibition at 10 μM (COX-2 [3]; 10 μM): 56 ± 8% | IC50 (COX-2 [3]; read-out: CFA(1) IC50): 8800 nM | % inhibition at 10 μM (5-LO [4]; 10 μM): 88 ± 3% | IC50 (5-LO [4]; read-out: CFA(1) IC50): 900 nM | % inhibition at 10 μM (cPLA2; 10 μM): 26 ± 8% | IC50 (cPLA2; read-out: CFA(1) IC50): > 10000 nM | % inhibition at 10 μM (COX-2 [5]; COX-2, cell-free, 10 μM): 35 ± 12% | IC50 (COX-2 [5]; COX-2, cell-free, read-out: CFA(1) IC50): > 10000 nM | Inhibition of COX-2 (COX-2 [5]; result in words): did not significantly inhibit COX-2 | IC50 (COX-1 [6]; COX-1, cell-free, read-out: CFA(1) IC50): > 10000 nM | % inhibition at 10 μM (5-LO [7]; A23187, 10 μM): 98 ± 2% | IC50 (5-LO [7]; A23187, read-out: CFA(1) IC50): 2400 nM | % inhibition at 10 μM (5-LO [8]; 10 μM): 91 ± 1% | IC50 (5-LO [8]; read-out: CFA(1) IC50): 1600 nM
Compound: COc1cc(-c2cc(=O)c3c(O)c(C/C=C(\C)CCC=C(C)C)c(O)cc3o2)ccc1O [CFA, Cannflavin A]
Effect on cell viability [1]: no effect | Effect on cell viability ([1]; listed as cannflavin A): no deleterious effects on human cell viability | Cytotoxicity ([1]; result in words): no evidence of cytotoxicity | Suppression of PGE2 (PGE2): suppressed PGE2 | % inhibition at 10 μM (COX-1 [6]; COX-1, cell-free, 10 μM): 36 ± 2% | Inhibition of COX-1 (COX-1 [6]; result in words): did not significantly inhibit COX-1 | Effect in DPPH assay (antioxidant activity): No effect | Effect in DPPH assay (antioxidant activity) (listed as cannflavin A): did not demonstrate innate antioxidant activity

Compound: COc1ccc2c(c1)c(CC(=O)O)c(C)n2C(=O)c1ccc(Cl)cc1 [Indomethacin, reference compound]
Reference control, % inhibition at indic. conc. (COX-1 [6]; COX-1, cell-free, 20 μM): Indomethacin (20 μM), 81 ± 8%

Reference control, % inhibition at indic. conc. (5-LO [4]; 3 μM): Zileuton (3 μM), 80 ± 4%
Compound: CC(c1cc2ccccc2s1)N(O)C(N)=O (stereo not shown) [Zileuton, reference compound]

Compound: O=C(/C=C/c1ccc(O)c(O)c1)NCCc1ccc(O)cc1 [caffeoyltyramine]
Inhibition of human LDL oxidation [9]: prominent inhibition of human LDL oxidation | Antioxidant activity against DPPH radicals [10]: demonstrated antioxidant activity against DPPH radicals

Compound: O=C(NCCc1ccc(O)cc1)C1=Cc2cc(O)c(O)cc2[C@H](c2ccc(O)c(O)c2)[C@H]1C(=O)NCCc1ccc(O)cc1 [cannabisin B]
Antiproliferative effects in HepG2 cells [11]: produced antiproliferative effects | Inhibition of human LDL oxidation [9]: prominent inhibition of human LDL oxidation | Antioxidant activity against DPPH radicals [10]: demonstrated antioxidant activity against DPPH radicals
